How the values were obtained:
[1] = system: passive cutaneous anaphylaxis (PCA); assay: Passive cutaneous anaphylaxis assay (PCA) in rats; format: in vivo, rat (Wister strain); details: oral 10 mg/kg, one hour before antigen; for inhibition in vivo at 10 mg/kg: Rattus norvegicus, po, 1 h, read-out: PCA Inhibition Ratio %
Procedure: (§1) The effect of the compounds (I) of the present invention in the treatment of asthma and allergic diseases were evaluated by a passive cutaneous anaphylaxis assay (PCA) in rats and by measuring anti-SRS-A action using ileus of guinea pigs.
(i) Antiserum abundant in homocytotropic antibody is prepared by the same method as Tada and Okumura did (cf. Journal of Immunology, volume 106, page 1002, […]). Thus, one mg (calculated as an amount of protein) of DNP-As (2,4-dinitrophenyl-coupled ascaris extract) prepared by methods of Strejan and Campbell (Journal of Immunology, volume 98, page 893, 1971) and of Eisen (Journal of American Chemical Society, volume 85, page 4593, 1953) and […] pertussis vaccine are administered to each paw of Wister strain rats (180 to 200 grams body weights) by dividing the dose by four. Five days later, 0.5 mg of DNP-As is adminstered into muscle of back. Eight days later from the initial immunization, blood is taken from descending aorta under anesthetizing with ether, the resulting serum is stored at -80° C. and is melted before use.
(ii) Effect of tested compounds is investigated as follows:
Anti-serum obtained by the method (i) is diluted with physiological saline solution double by double successively and 0.05 ml of each diluted solution is administered into back of Wister strain rats (140 to 160 grams body weight) subcutaneously. After 72 hours, a solution of 2 mg (calculated as protein) of DNP-As and 2.5 mg of Evand Blue dissolved in 1 ml of physiological saline solution is administered intravenously at a dose of 5 ml/kg. After thirty minutes from antigen solution administration, the animals are killed and diameters of blue spots appeared at the place where antiserum is administered are measured. The PCA test is conducted by the same method as already described using a diluted solutions of antiserum which always show 10 mm or more of spot diameters and the effect of the test compounds is judged. Thus, antiserum diluted solutions are administered to two places in back. Test compounds are administered orally at the dose of 10 mg/kg one hour before administration of antigen solution. From the skin of reacted parts of killed animals, leaked or emitted dyestuff is extracted [cf. Baeck and Steinetz: J. Pharmacol. Exp. Ther., Vol. 131, page 400 (1961)] and the amount of the dyestuff is measured. The inhibition ratio is calculated by the following expression: [formula] in which R' is an amount of dyestuff in the group treated with the test compounds and A is that in the control group.

[2] = system: SRS-A; assay: Anti-SRS-A action (SRS-A induced shrinkage of guinea pig ileus); parameters: species or system guinea pig (Hartley strain male); details: treated five minutes before SRS-A (20 units), 5 min; for SRS-A Inhibition Ratio % 10^-6 M: 1 µM; for SRS-A Inhibition Ratio % 10^-7 M: 0.1 µM
Procedure: as §1
Anti-SRS-A action (An anti-action against slow reacting substance of anaphylaxie)
Hartley strain male guinea pigs (300 to 350 grams body weight) are killed and 1.0 to 1.5 cm of ileus is immediately excised from ileocecal parts and is suspended in 10 ml of Tyrode solution (95% O2 -5% CO2 saturation) containing 10^-7 g/ml of atropine and 10^-6 g/ml of pyrilamine. SRS-A (20 units) (the amount of SRS-A showing the same shrinkage as 5 ng of histamine is defined as one unit) prepared by using sensitized guinea pig lung is given to cause shrinkage there. Then antagonistic action of test compounds treated five minutes ago against the shrinkage is measured and recorded via isotonic transducer. [formula] in which A' is a height of shrinkage of SRS-A + test compound and A is that of SRS-A.

Structure (SMILES) | inhibition in vivo at 10 mg/kg [1] [%] | SRS-A Inhibition Ratio % 10^-6 M [2] [%] | SRS-A Inhibition Ratio % 10^-7 M [2] [%] | PCA Inhibition Ratio % [1] [%]
Cc1c(-c2ccc(C(C)C)cc2)oc2c(C(=O)O)cccc2c1=O [Example 7, 4'-Isopropyl-3-methylflavone-8-carboxylic acid] | 19.7 | 40.8 | 19.0 | –
COC(=O)c1cccc2c(=O)c(C)c(-c3ccccc3)oc12 [Example 8, Methyl 3-methylflavone-8-carboxylate] | 17.4 | 64.9 | 45.0 | –
CCN(CC)C(=O)c1cccc2c(=O)c(C)c(-c3ccccc3)oc12 [Example 9, 3-methylflavone-8-carboxylic acid N,N-diethylamide] | 21.9 | 64.7 | 50.7 | –
CCN(CC)C(=O)c1cccc2c(=O)c(C)c(-c3ccccc3OC)oc12 [Example 12, 2'-methoxy-3-methylflavone-8-carboxylic acid N,N-diethylamide] | 19.2 | 52.4 | 8.3 | –
CCNC(=O)c1cccc2c(=O)c(C)c(-c3ccc(OC)cc3)oc12 [Example 15, 4'-methoxy-3-methylflavoen-8-carboxylic acid N-ethylamide] | 19 | 41.9 | 30.3 | –
CCOc1ccccc1-c1oc2c(C(=O)O)cccc2c(=O)c1C [Example 16, 2'-ethoxy-3-methylflavone-8-carboxylic acid] | 18.6 | 14.8 | 10.4 | –
CCOC(=O)c1cccc2c(=O)c(C)c(-c3ccccc3OCC)oc12 [Example 17, ethyl 2'-ethoxy-3-methylflavone-8-carboxylate] | 21.1 | 72.5 | 50.0 | –
CCNC(=O)c1cccc2c(=O)c(C)c(-c3ccccc3OCC)oc12 [Example 19, 2'-ethoxy-3-methylflavone-8-carboxylic acid N-ethylamide] | 16 | 50.0 | 30.0 | –
CCOC(=O)c1cccc2c(=O)c(C)c(-c3ccccc3OC(C)C)oc12 [Example 21, ethyl 2'-isopropoxy-3-methylflavone-8-carboxylate] | 17.8 | 31.0 | 19.8 | –
CCN(CC)C(=O)c1cccc2c(=O)c(C)c(-c3ccccc3OC(C)C)oc12 [Example 22, 2'-isopropoxy-3-methylflavone-8-carboxylic acid N,N-diethylamide] | 16.1 | 66.7 | 40.0 | –
COc1cccc(-c2oc3c(C(=O)O)cccc3c(=O)c2C)c1OC [Example 23, 2',3'-dimethoxy-3-methylflavone-8-carboxylic acid] | 19.5 | 24.0 | 6.2 | –
CCOC(=O)c1cccc2c(=O)c(C)c(-c3cccc(OC)c3OC)oc12 [Example 24, ethyl 2'.3'-dimethoxy-3-methylflavone-8-carboxylate] | 20.4 | 100 | 18.2 | –
CCN(CC)C(=O)c1cccc2c(=O)c(C)c(-c3ccc(OC)cc3OC)oc12 [Example 28, 2',4'-dimethoxy-3-methylflavone-8-carboxylic acid N,N-diethylamide] | 20.1 | 63.2 | 23.0 | –
CCN(CC)C(=O)c1cccc2c(=O)c(C)c(-c3ccc(OC)c(OC)c3OC)oc12 [Example 30, 2',3',4'-trimethoxy-3-methylflavone-8-carboxylic acid N,N-diethylamide] | 16.3 | 31.0 | 18.0 | –
CCOC(=O)c1cccc2c(=O)c(C)c(-c3ccc(OC)c(OC)c3OC)oc12 [Example 31, ethyl 2',3',4'-trimethoxy-3-methylflaveone-8-carboxylate] | – | 63.0 | 20.4 | 20.2
CCOC(=O)c1cccc2c(=O)c(C)c(-c3ccccc3C)oc12 [Example 34, 2',3-dimethylflavone-8-carboxylic acid ethyl ester] | 19.5 | 71.4 | 47.6 | –
CCOC(=O)c1cccc2c(=O)c(C)c(-c3ccccc3CC)oc12 [Example 37, ethyl 2'-ethyl-3-methylflavone-8-carboxylate] | 20.5 | 100 | 25.0 | –
CCc1ccccc1-c1oc2c(C(=O)N(CC)CC)cccc2c(=O)c1C [Example 38, 2'-ethyl-3-methylflavone-8-carboxylic acid N,N-diethylamide] | 16 | 100 | 29.6 | –
Cc1ccc(-c2oc3c(C(=O)O)cccc3c(=O)c2C)c(C)c1 [Example 39, 2',3,4'-trimethylflavone-8-carboxylic acid] | 37 | 5.3 | 3.2 | –
CCOC(=O)c1cccc2c(=O)c(C)c(-c3ccc(C)cc3C)oc12 [Example 40, ethyl 2',3,4'-trimethylflavone-8-carboxylate] | 17.3 | 73.9 | 8.1 | –
CCN(CC)C(=O)c1cccc2c(=O)c(C)c(-c3ccc(C)cc3C)oc12 [Example 41, 2',3,4'-trimethylflavone-8-carboxylic acid N,N-diethylamide] | 31.4 | 54.1 | 23.4 | –
Cc1ccc(-c2oc3c(C(=O)OCCO)cccc3c(=O)c2C)c(C)c1 [Example 42, beta-hydroxyethyl 2'.3.4'-trimethylflavone-8-carboxylate] | 19.8 | 27.6 | 10.3 | –

Source: US4594345A, “Methylflavone-8-carboxylates” (Nippon Shinyaku Co. Ltd., priority 1982, dated 1986)
